Experimental data as given in patent US10005817B2, “Peptide pharmaceuticals” (EUMEDERIS PHARMACEUTICALS, INC., priority 2012, dated 2018).
Positions of bridges follow the written chain, without caps; N, C: chain ends. Non-standard residues stand in square brackets, D forms with d. Residues, ends and D or L forms follow the SMILES beside them. *: point of attachment. GlcA(β-D,1-O-dodecyl) = CCCCCCCCCCCCO[C@@H]1O[C@H](C(=O)*)[C@@H](O)[C@H](O)[C@H]1O; βGlcA(1-OMe) = CO[C@@H]1O[C@H](C(=O)*)[C@@H](O)[C@H](O)[C@H]1O; Phe(2,4,6-Me3) = Cc1cc(C)c(C[C@H](N)C(=O)O)c(C)c1; Dmt = Cc1cc(O)cc(C)c1C[C@H](N)C(=O)O; hArg = N=C(N)NCCCC[C@H](N)C(=O)O; Nle = CCCC[C@H](N)C(=O)O; Ac5c = NC1(C(=O)O)CCCC1; Aib = CC(C)(N)C(=O)O

How the values were obtained:
PTH receptor (PTHR1) = target: T1, PTH receptor (PTHR1) (Homo sapiens, UniProt Q03431); assay: PTH1 cellular assay, cAMP, agonist mode (SaOS2 cells, Cerep); format: cell-based; conditions: for Emax: SAOS-2, read-out: Maximal response (% PTHrP)
T1 construct: Cerep SA
T1 sequence (Q03431 27-593): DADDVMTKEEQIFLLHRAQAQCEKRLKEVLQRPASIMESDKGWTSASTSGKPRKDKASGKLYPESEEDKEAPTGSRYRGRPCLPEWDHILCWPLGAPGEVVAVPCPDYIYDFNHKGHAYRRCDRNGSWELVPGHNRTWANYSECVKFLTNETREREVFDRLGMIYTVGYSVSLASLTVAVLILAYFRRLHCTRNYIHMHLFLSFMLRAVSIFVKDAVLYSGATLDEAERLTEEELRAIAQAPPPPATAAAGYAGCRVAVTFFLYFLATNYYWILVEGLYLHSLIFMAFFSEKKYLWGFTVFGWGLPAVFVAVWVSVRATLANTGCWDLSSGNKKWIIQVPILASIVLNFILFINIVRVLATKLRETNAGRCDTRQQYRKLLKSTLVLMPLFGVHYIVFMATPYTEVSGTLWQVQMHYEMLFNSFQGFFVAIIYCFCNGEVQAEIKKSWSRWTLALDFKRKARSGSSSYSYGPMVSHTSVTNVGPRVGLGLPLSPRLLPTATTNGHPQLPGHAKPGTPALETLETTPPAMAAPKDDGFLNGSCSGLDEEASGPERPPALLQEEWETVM
Method: Compounds were weighed precisely in an amount of approximately 1 mg and assayed in standard cellular assays (cerep SA). The readout is the amount of cAMP generated in the cells treated with the test compounds, in either agonist or antagonist mode.
Compounds were dissolved in water and diluted in assay buffer containing 1% bovine serum albumin.

mu opioid receptor = target: T2, mu opioid receptor (Homo sapiens, UniProt P35372); assay: mu opioid receptor cellular assay (MOP), agonist mode, cAMP readout (Cerep); format: cell-based
T2 construct: Cerep
Method: Compounds were weighed precisely in an amount of approximately 2 mg and assayed in standard cellular assays by the contract research organization Cerep, Inc. (Pullman, Wash.) as executed at their subsidiary, Cerep SA (Le Bois l'Eveque, France). The readout is the amount of cAMP generated in the cells treated with the test compounds, in either agonist or antagonist mode. The assays used were the mu opioid receptor cellular assay (MOP in agonist and antagonist mode), the delta2 opioid receptor cellular assay (DOP in agonist and antagonist mode) and the kappa opioid receptor cellular assay (KOP in agonist and antagonist mode). The assays used are described in Wang, J. B., et al. (1994) FEBS Lett 338: 217-222, Law, P. Y. and Loh, H. H. (1993) Mol Pharmacol 43: 684-693, and Avidor-Reiss, T., et al. (1995) FEBS Lett 361: 70-74. The stimulant for the cells in the DOR antagonist assay was 3×10E-8M DPDPE, a well-accepted DOR literature standard.

db/db mice = assay: db/db mice, blood glucose after s.c. dosing; format: in vivo, mouse; conditions: db/db mice, s.c., 250 nmole/kg
Method: The 60 female db/db B6BKS (D) Leprdb/J (strain 000697) mice for this study were approximately 8 to 9 weeks old at arrival (Jackson Laboratory, Bar Harbor, Me.). […] One group of 8 female mice served as the vehicle control and received the vehicle, 0.2% BSA in saline, pH 7.4. One additional group of 8 female mice received the positive control article, liraglutide, at a dose level of 50 nmoles/kg. The test articles, vehicle, and positive control article were administered on Day 1, at approximately 0, 7, and 24 hours during the study via subcutaneous injection at a dose volume of 6 mL/kg.
Clinical observations were conducted at receipt, prior to randomization, and daily from Days 1 to 5. Body weights were measured and recorded at receipt, prior to randomization, and daily from Days 1 to 5. Food consumption was measured and recorded daily from Days 1 to 5. Blood samples for glucose analysis were collected pretest (Day −3) and at 0, 1, 2, 4, 8, 10, 24, 48, 72, and 96 hours following the first dose on Day 1. At study termination all animals were euthanized and the carcasses were discarded without further evaluation.

T2 sequence (P35372 whole entry): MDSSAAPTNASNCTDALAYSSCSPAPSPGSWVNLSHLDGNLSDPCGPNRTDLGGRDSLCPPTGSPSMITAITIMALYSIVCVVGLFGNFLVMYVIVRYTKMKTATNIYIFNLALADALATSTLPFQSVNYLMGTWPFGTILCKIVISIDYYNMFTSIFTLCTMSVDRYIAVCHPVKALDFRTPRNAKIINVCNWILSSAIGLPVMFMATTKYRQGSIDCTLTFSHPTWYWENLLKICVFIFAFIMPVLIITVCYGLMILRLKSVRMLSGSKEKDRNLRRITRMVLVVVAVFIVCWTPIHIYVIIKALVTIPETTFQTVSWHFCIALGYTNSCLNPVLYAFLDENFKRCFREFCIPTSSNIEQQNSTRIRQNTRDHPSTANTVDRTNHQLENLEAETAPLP

SMILES | Characterization (PTH receptor (PTHR1)) | Emax (PTH receptor (PTHR1)) [%] | Mean Blood Glucose (db/db mice; 0 hr) [mg/dL] | Mean Blood Glucose (db/db mice; 10 hr) [mg/dL] | Mean Blood Glucose (db/db mice; 24 hr) [mg/dL] | Mean Blood Glucose (db/db mice; 48 hr) [mg/dL] | also measured
CCCCCCCCCCCCO[C@@H]1O[C@H](C(=O)NCCCC[C@H](NC(=O)[C@H](CCC(N)=O)NC(=O)[C@@H](NC(=O)[C@H](Cc2c[nH]c3ccccc23)NC(=O)[C@H](CCCNC(=N)N)NC(=O)[C@H](C)NC(=O)[C@H](CCCCNC(=N)N)NC(=O)[C@H](CCC(N)=O)NC(=O)[C@H](Cc2c[nH]cn2)NC(=O)[C@H](CCCC)NC(=O)[C@H](CC(C)C)NC(=O)[C@H](CCC(N)=O)NC(=O)[C@@H](NC(=O)[C@H](CCC(=O)O)NC(=O)C(C)(C)NC(=O)[C@@H](NC(=O)C2(N)CCCC2)C(C)C)[C@@H](C)CC)[C@@H](C)CC)C(N)=O)[C@@H](O)[C@H](O)[C@H]1O [EU-204] (H-[Ac5c]V[Aib]EIQL[Nle]HQ[hArg]ARWIQK(GlcA(β-D,1-O-dodecyl))-NH2) | agonist | 135 |  |  |  |  | EC50 (PTH receptor (PTHR1)): 20 nM
CCCCCCCCCCCCO[C@@H]1O[C@H](C(=O)NCCCC[C@H](NC(=O)C(C)(C)NC(=O)[C@H](CCC(N)=O)NC(=O)[C@@H](NC(=O)[C@H](Cc2c[nH]c3ccccc23)NC(=O)[C@H](CCCNC(=N)N)NC(=O)[C@H](C)NC(=O)[C@H](CCCCNC(=N)N)NC(=O)[C@H](CCC(N)=O)NC(=O)[C@H](Cc2c[nH]cn2)NC(=O)[C@H](CCCC)NC(=O)[C@H](CC(C)C)NC(=O)[C@H](CCC(N)=O)NC(=O)[C@@H](NC(=O)[C@H](CCC(=O)O)NC(=O)C(C)(C)NC(=O)[C@@H](NC(=O)C2(N)CCCC2)C(C)C)[C@@H](C)CC)[C@@H](C)CC)C(N)=O)[C@@H](O)[C@H](O)[C@H]1O [EU-207] (H-[Ac5c]V[Aib]EIQL[Nle]HQ[hArg]ARWIQ[Aib]K(GlcA(β-D,1-O-dodecyl))-NH2; N-terminus assumed) | agonist | 110 |  |  |  |  | 
CCCCCCCCCCCCO[C@@H]1O[C@H](C(=O)NCCCC[C@H](NC(=O)[C@H](CC(C)C)NC(=O)[C@H](Cc2ccccc2)NC(=O)[C@@H]2CCC(=O)NCCCC[C@H](NC(=O)[C@H](CC(=O)O)NC(=O)[C@H](CCC(N)=O)NC(=O)[C@@H](NC(=O)[C@H](Cc3c[nH]c4ccccc34)NC(=O)[C@H](CCCNC(=N)N)NC(=O)[C@H](C)NC(=O)[C@H](CCCCNC(=N)N)NC(=O)[C@H](CCC(N)=O)NC(=O)[C@H](Cc3c[nH]cn3)NC(=O)[C@H](CCCC)NC(=O)[C@H](CC(C)C)NC(=O)[C@H](CCC(N)=O)NC(=O)[C@@H](NC(=O)[C@H](CCC(=O)O)NC(=O)C(C)(C)NC(=O)[C@@H](NC(=O)C3(N)CCCC3)C(C)C)[C@@H](C)CC)[C@@H](C)CC)C(=O)N[C@@H](CCCNC(=N)N)C(=O)N[C@@H](CCCNC(=N)N)C(=O)N[C@@H](CCCNC(=N)N)C(=O)N2)C(=O)NC(C)(C)C(N)=O)[C@@H](O)[C@H](O)[C@H]1O [EU-284] (H-[Ac5c]V[Aib]EIQL[Nle]HQ[hArg]ARWIQDKRRREFLK(GlcA(β-D,1-O-dodecyl))[Aib]-NH2; lactam 18-22; N-terminus assumed) | agonist | 110 |  |  |  |  | 
CO[C@@H]1O[C@H](C(=O)NCCCC[C@H](NC(=O)[C@H](Cc2c(C)cc(C)cc2C)NC(=O)[C@@H]2CCCN2C(=O)[C@@H](N)Cc2c(C)cc(O)cc2C)C(N)=O)[C@@H](O)[C@H](O)[C@H]1O [EU-A101, Dmt-Pro-Tmp-Lys(C1-glucuronyl)-NH2] (H-[Dmt]P[Phe(2,4,6-Me3)]K(βGlcA(1-OMe))-NH2) |  |  |  |  |  |  | Characterization (MOP) (mu opioid receptor): pure agonist; EC50 (mu opioid receptor): 13 nM
CO[C@@H]1O[C@H](C(=O)NCCCC[C@@H](NC(=O)[C@@H](N)Cc2c(C)cc(O)cc2C)C(=O)N[C@@H](Cc2c(C)cc(C)cc2C)C(=O)N[C@@H](Cc2ccccc2)C(N)=O)[C@@H](O)[C@H](O)[C@H]1O [EU-A107, Dmt-D-Lys(C1-glucuronyl)-Tmp-Phe-NH2] (H-[Dmt][dK](βGlcA(1-OMe))[Phe(2,4,6-Me3)]F-NH2; N-terminus assumed) |  |  |  |  |  |  | Characterization (MOP) (mu opioid receptor): Agonist; EC50 (mu opioid receptor): 60 nM
CCCCCCCCO[C@@H]1O[C@H](C(=O)NCCCC[C@H](NC(=O)[C@@H](NC(=O)[C@H](Cc2ccccc2)NC(=O)[C@H](CCC(=O)O)NC(=O)[C@@H]2CCCCNC(=O)CC[C@H](NC(=O)[C@H](CC(=O)O)NC(=O)[C@H](CC(C)C)NC(=O)[C@H](Cc3ccc(O)cc3)NC(=O)[C@H](CCCCN)NC(=O)[C@H](CO)NC(=O)[C@H](Cc3ccc(O)cc3)NC(=O)[C@H](CC(=O)O)NC(=O)[C@H](CO)NC(=O)[C@@H](NC(=O)[C@H](Cc3ccccc3)NC(=O)[C@@H](NC(=O)CNC(=O)[C@H](CCC(N)=O)NC(=O)C(C)(C)NC(=O)[C@@H](N)Cc3c[nH]cn3)[C@@H](C)O)[C@@H](C)O)C(=O)N[C@@H](CCC(N)=O)C(=O)N[C@@H](C)C(=O)N[C@@H](C)C(=O)N2)[C@@H](C)CC)C(=O)N[C@@H](Cc2c[nH]c3ccccc23)C(=O)N[C@@H](CC(C)C)C(=O)N[C@@H](CC(C)C)C(=O)N[C@@H](CCC(N)=O)C(=O)N[C@H](C(N)=O)[C@@H](C)O)[C@@H](O)[C@H](O)[C@H]1O [EU-A992] |  |  | 405 | 104 | 112 | 130 | 
CCCCCCCCCCO[C@@H]1O[C@H](C(=O)NCCCC[C@H](NC(=O)[C@@H](NC(=O)[C@H](Cc2ccccc2)NC(=O)[C@H](CCC(=O)O)NC(=O)[C@@H]2CCCCNC(=O)CC[C@H](NC(=O)[C@H](CC(=O)O)NC(=O)[C@H](CC(C)C)NC(=O)[C@H](Cc3ccc(O)cc3)NC(=O)[C@H](CCCCN)NC(=O)[C@H](CO)NC(=O)[C@H](Cc3ccc(O)cc3)NC(=O)[C@H](CC(=O)O)NC(=O)[C@H](CO)NC(=O)[C@@H](NC(=O)[C@H](Cc3ccccc3)NC(=O)[C@@H](NC(=O)CNC(=O)[C@H](CCC(N)=O)NC(=O)C(C)(C)NC(=O)[C@@H](N)Cc3c[nH]cn3)[C@@H](C)O)[C@@H](C)O)C(=O)N[C@@H](CCC(N)=O)C(=O)N[C@@H](C)C(=O)N[C@@H](C)C(=O)N2)[C@@H](C)CC)C(=O)N[C@@H](Cc2c[nH]c3ccccc23)C(=O)N[C@@H](CC(C)C)C(=O)N[C@@H](CC(C)C)C(=O)N[C@@H](CCC(N)=O)C(=O)N[C@H](C(N)=O)[C@@H](C)O)[C@@H](O)[C@H](O)[C@H]1O [EU-A1167] |  |  | 379 | 171 | 117 | 113 | 
CCCCCCCCCCCO[C@@H]1O[C@H](C(=O)NCCCC[C@H](NC(=O)[C@@H](NC(=O)[C@H](Cc2ccccc2)NC(=O)[C@H](CCC(=O)O)NC(=O)[C@@H]2CCCCNC(=O)CC[C@H](NC(=O)[C@H](CC(=O)O)NC(=O)[C@H](CC(C)C)NC(=O)[C@H](Cc3ccc(O)cc3)NC(=O)[C@H](CCCCN)NC(=O)[C@H](CO)NC(=O)[C@H](Cc3ccc(O)cc3)NC(=O)[C@H](CC(=O)O)NC(=O)[C@H](CO)NC(=O)[C@@H](NC(=O)[C@H](Cc3ccccc3)NC(=O)[C@@H](NC(=O)CNC(=O)[C@H](CCC(N)=O)NC(=O)C(C)(C)NC(=O)[C@@H](N)Cc3c[nH]cn3)[C@@H](C)O)[C@@H](C)O)C(=O)N[C@@H](CCC(N)=O)C(=O)N[C@@H](C)C(=O)N[C@@H](C)C(=O)N2)[C@@H](C)CC)C(=O)N[C@@H](Cc2c[nH]c3ccccc23)C(=O)N[C@@H](CC(C)C)C(=O)N[C@@H](CC(C)C)C(=O)N[C@@H](CCC(N)=O)C(=O)N[C@H](C(N)=O)[C@@H](C)O)[C@@H](O)[C@H](O)[C@H]1O [EU-A1168] |  |  | 380 | 133 | 169 | 164 | 
